ChEMBL document CHEMBL3616364, “Going Out on a Limb: Delineating The Effects of β-Branching, N-Methylation, and Side Chain Size on the Passive Permeability, Solubility, and Flexibility of Sanguinamide A Analogues” (J Med Chem, 2015)
Values after ≈ are worked out from the molar mass of the structure shown. Starred links: 1 amine or outer side, 2 acyl side, 3 side chain; linkers in the order of their positions; H or OH if unused. Non-standard residues stand in square brackets, D forms with d. Residues, ends and D or L forms follow the SMILES beside them. Ile(ψThz) = CC[C@H](C)[C@H](N[*:1])c1nc(C(=O)[*:2])cs1; LeuThz(4-CO) = CC(C)C[C@H](N[*:1])c1nc(C(=O)[*:2])cs1; ValThz = CC(C)[C@H](N[*:1])c1nc(C(=O)[*:2])cs1; NMeF = CN[C@@H](Cc1ccccc1)C(=O)O; NMeI = CC[C@H](C)[C@H](NC)C(=O)O; Tle = CC(C)(C)[C@H](N)C(=O)O; NMeA = CN[C@@H](C)C(=O)O

Experiments:
[1] = Permeability of the compound at pH 7.4 at 10 uM after 10 hrs by LC-MS based PAMPA
[2] = Apparent permeability from apical to basolateral side in human Caco2 cells at 10 uM after 2 hrs by LC-MS/MS analysis; conditions: Caco-2
[3] = Retention time of the compound in isocratic acetonitrile/water by HPLC analysis; conditions: buffer
[4] = Kinetic solubility of the compound in PBS at pH 7.4
physchem = conditions: PBS

Row | Structure (SMILES) | Papp at 10 h, 10 µM [1] [×10⁻⁶ cm/s] | Papp A→B at 2 h, 10 µM [2] [×10⁻⁶ cm/s] | Retention_time [3] [min] | solubility kinetic [4] [µM] | solubility thermodynamic at 48 h (physchem) [µM]
1 | CC[C@H](C)[C@@H]1NC(=O)[C@@H]2CCCN2C(=O)[C@H](Cc2ccccc2)NC(=O)[C@H](C)NC(=O)c2csc(n2)[C@H]([C@@H](C)CC)NC(=O)[C@@H]2CCCN2C1=O (cyclo(AFPIP[Ile(ψThz)])) | 5.3 | 1.3 | 2.77 | 147 (≈ 106 µg/mL) | 107 (≈ 77.2 µg/mL)
2 | CC[C@H](C)[C@@H]1NC(=O)[C@@H]2CCCN2C(=O)[C@H](Cc2ccccc2)NC(=O)[C@H](C)NC(=O)c2csc(n2)[C@H](CC(C)C)NC(=O)[C@@H]2CCCN2C1=O (cyclo(AFPIP[LeuThz(4-CO)])) | 5.6 | 1.3 | 2.87 | 182 (≈ 131 µg/mL) | 35 (≈ 25.3 µg/mL)
3 | CC[C@H](C)[C@@H]1NC(=O)[C@@H]2CCCN2C(=O)[C@H](Cc2ccccc2)NC(=O)[C@H](C)NC(=O)c2csc(n2)[C@H](C(C)C)NC(=O)[C@@H]2CCCN2C1=O (cyclo(AFPIP[ValThz])) | 4.8 | 3.7 | 2.03 | 285 (≈ 202 µg/mL) | 205 (≈ 145 µg/mL)
4 | CC[C@H](C)[C@@H]1NC(=O)[C@@H]2CCCN2C(=O)[C@H](CC(C)C)NC(=O)[C@@H]2CCCN2C(=O)[C@H](Cc2ccccc2)NC(=O)[C@H](C)NC(=O)c2csc1n2 (cyclo(AFPLP[Ile(ψThz)])) | 5.3 | 0.2 | 2.19 | 133 (≈ 96 µg/mL) | 122 (≈ 88.1 µg/mL)
5 | CC[C@H](C)[C@@H]1NC(=O)[C@@H]2CCCN2C(=O)[C@H]([C@@H](C)O)NC(=O)[C@@H]2CCCN2C(=O)[C@H](Cc2ccccc2)NC(=O)[C@H](C)NC(=O)c2csc1n2 (cyclo(AFPTP[Ile(ψThz)])) | 0.2 | 0.4 | 1.02 | 285 (≈ 202 µg/mL) | 
6 | CC[C@H](C)[C@@H]1NC(=O)[C@@H]2CCCN2C(=O)[C@H](C(C)C)NC(=O)[C@@H]2CCCN2C(=O)[C@H](Cc2ccccc2)NC(=O)[C@H](C)NC(=O)c2csc1n2 (cyclo(AFPVP[Ile(ψThz)])) | 4.9 | 0.3 | 1.97 | 182 (≈ 129 µg/mL) | 236 (≈ 167 µg/mL)
7 | CC[C@H](C)[C@@H]1NC(=O)[C@@H]2CCCN2C(=O)[C@H]([C@@H](C)CC)N(C)C(=O)[C@@H]2CCCN2C(=O)[C@H](Cc2ccccc2)NC(=O)[C@H](C)NC(=O)c2csc1n2 (cyclo(AFP[NMeI]P[Ile(ψThz)])) | 1.3 | 0.4 | 1.79 |  | 
8 | CC[C@H](C)[C@@H]1NC(=O)[C@@H]2CCCN2C(=O)[C@H](Cc2ccccc2)N(C)C(=O)[C@H](C)NC(=O)c2csc(n2)[C@H]([C@@H](C)CC)NC(=O)[C@@H]2CCCN2C1=O (cyclo(A[NMeF]PIP[Ile(ψThz)])) | 11 | 7.4 | 3.03 | 105 (≈ 77.3 µg/mL) | 172 (≈ 127 µg/mL)
9 | CC[C@H](C)[C@@H]1NC(=O)[C@@H]2CCCN2C(=O)[C@H](C(C)C)NC(=O)[C@@H]2CCCN2C(=O)[C@H](Cc2ccccc2)N(C)C(=O)[C@H](C)NC(=O)c2csc1n2 (cyclo(A[NMeF]PVP[Ile(ψThz)])) | 9.1 | 6.8 | 2.24 | 133 (≈ 96 µg/mL) | 296 (≈ 214 µg/mL)
10 | CC[C@H](C)[C@@H]1NC(=O)c2csc(n2)[C@H]([C@@H](C)CC)NC(=O)[C@@H]2CCCN2C(=O)[C@H]([C@@H](C)CC)NC(=O)[C@@H]2CCCN2C(=O)[C@H](Cc2ccccc2)NC1=O (cyclo(FPIP[Ile(ψThz)]I)) | 6.1 | 9.6 | 7.86 | 39 (≈ 29.8 µg/mL) | 6 (≈ 4.58 µg/mL)
11 | CC[C@H](C)[C@@H]1NC(=O)[C@@H]2CCCN2C(=O)[C@H](Cc2ccccc2)NC(=O)[C@H](CC(C)C)NC(=O)c2csc(n2)[C@H]([C@@H](C)CC)NC(=O)[C@@H]2CCCN2C1=O (cyclo(FPIP[Ile(ψThz)]L)) | 4.7 | 10.9 | 9.13 | 39 (≈ 29.8 µg/mL) | 10 (≈ 7.64 µg/mL)
12 | CC[C@H](C)[C@@H]1NC(=O)[C@@H]2CCCN2C(=O)[C@H](Cc2ccccc2)NC(=O)[C@H](C)N(C)C(=O)c2csc(n2)[C@H]([C@@H](C)CC)NC(=O)[C@@H]2CCCN2C1=O (cyclo(FPIP[Ile(ψThz)][NMeA])) | 0.5 | 0.2 | 1.48 | 333 (≈ 245 µg/mL) | 801 (≈ 589 µg/mL)
13 | CC[C@H](C)[C@@H]1NC(=O)[C@@H]2CCCN2C(=O)[C@H](Cc2ccccc2)NC(=O)[C@H](C(C)(C)C)NC(=O)c2csc(n2)[C@H]([C@@H](C)CC)NC(=O)[C@@H]2CCCN2C1=O (cyclo(FPIP[Ile(ψThz)][Tle])) |  |  | 8.72 |  | 
14 | CC(C)[C@@H]1NC(=O)c2csc(n2)[C@H](C(C)C)NC(=O)[C@@H]2CCCN2C(=O)[C@H](C(C)C)NC(=O)[C@@H]2CCCN2C(=O)[C@H](Cc2ccccc2)NC1=O (cyclo(FPVP[ValThz]V)) | 4.7 | 2.2 | 2.81 | 105 (≈ 75.8 µg/mL) | 148 (≈ 107 µg/mL)
15 | CC[C@H](C)[C@@H]1NC(=O)[C@@H]2CCCN2C(=O)[C@H](Cc2ccccc2)N(C)C(=O)[C@H](CC(C)C)NC(=O)c2csc(n2)[C@H]([C@@H](C)CC)NC(=O)[C@@H]2CCCN2C1=O (cyclo(IP[Ile(ψThz)]L[NMeF]P)) | 17.2 | 19.3 | 5.06 | 133 (≈ 103 µg/mL) | 111 (≈ 86.4 µg/mL)
16 | CC[C@H](C)[C@@H]1NC(=O)[C@@H]2CCCN2C(=O)[C@H](Cc2ccccc2)N(C)C(=O)[C@H](C(C)(C)C)NC(=O)c2csc(n2)[C@H]([C@@H](C)CC)NC(=O)[C@@H]2CCCN2C1=O (cyclo(IP[Ile(ψThz)][Tle][NMeF]P)) |  |  | 10.94 |  | 
17 | CC[C@H](C)[C@@H]1NC(=O)c2csc(n2)[C@H]([C@@H](C)CC)NC(=O)[C@@H]2CCCN2C(=O)[C@H]([C@@H](C)CC)NC(=O)[C@@H]2CCCN2C(=O)[C@H](Cc2ccccc2)N(C)C1=O (cyclo(I[NMeF]PIP[Ile(ψThz)])) | 1.5 | 21.2 | 10 | 21 (≈ 16.3 µg/mL) | 12 (≈ 9.34 µg/mL)
